MBC, MIC and Activity data for 3 compounds are collected here from ChEMBL document CHEMBL1156451 (J Biol Chem, 2007).

Molecules are shown by their SMILES. Values after ≈ are worked out from the molar mass of the structure shown. Active and inactive are the calls of the source. Where a SMILES comes first, the peptide text is derived from it.

Series [1] deals with Escherichia coli. In words: Antibacterial activity against Escherichia coli K12 ATCC 23716 in 10% Luria-Bertani medium/90% Hepes buffer at pH 7.0. Format: functional.
Series [2] relates to Acinetobacter baumannii. The series can be described thus: Antibacterial activity against Acinetobacter baumannii ATCC 19606 after 24 hrs in Mueller-Hinton broth medium. Format: functional. As to conditions: ATCC 19606, 24 h.
A short description of series [3]: Toxicity in human erythrocytes assessed as hemolysis. As to conditions: erythrocyte. Format: cell-based.
Series [4] concerns HeLa. The series can be described thus: Cytotoxicity against human HeLa cells at 100 ug/ml after 24 hrs by MTT assay relative to control. Format: functional. In general terms: Formazan colour is commonly taken as a measure of viable cells.
In series [5] the test system is Escherichia coli. The series can be described thus: Antibacterial activity against Escherichia coli K12 ATCC 23716 after 24 hrs in Mueller-Hinton broth medium. Format: functional. Conditions: K12, 24 h.
Series [6] deals with Bordetella bronchiseptica. The series can be described thus: Antibacterial activity against Bordetella bronchiseptica CUN 11844-99 after 24 hrs in Mueller-Hinton broth medium. Format: functional.
The test system of series [7] is HeLa. In words: Cytotoxicity against human HeLa cells at 100 ug/ml after 24 hrs by neutral red uptake assay relative to control. Format: functional.
Series [8] deals with Brucella abortus. In words: Antibacterial activity against Brucella abortus 9.19 (per-) after 24 hrs in Mueller-Hinton broth medium. Format: functional.
Series [9] relates to Staphylococcus aureus. The series can be described thus: Antibacterial activity against methicillin-resistant Staphylococcus aureus ATCC 43300 after 24 hrs in Mueller-Hinton broth medium. Format: functional. Conditions: ATCC 43300, 24 h.
The test system of series [10] is Pseudomonas aeruginosa. The series can be described thus: Antibacterial activity against Pseudomonas aeruginosa CUN 4158-02 after 24 hrs in Mueller-Hinton broth medium. Format: functional.
Series [11] has as its system Escherichia coli. In words: Antibacterial activity against Escherichia coli ATCC 25922 after 24 hrs in Mueller-Hinton broth medium. Format: functional. Conditions: ATCC 25922, 24 h.
The test system of series [12] is Brucella abortus. In words: Antibacterial activity against Brucella abortus 9.49 (per-) after 48 hrs in Mueller-Hinton broth medium. Format: functional.

What is called MBC is the smallest concentration meeting the test's criterion for killing. The low end stands for greater bactericidal potency, the high end for weaker bactericidal potency. As a reminder, the MIC is the least concentration at which growth counts as inhibited. Low readings indicate a more susceptible organism, high ones a less susceptible organism. Take `CC[C@H](C)[C@H](NC(=O)[C@H](CCCNC(=N)N)NC(=O)[C@H](CCCNC(=N)N)NC(=O)[C@H](CC(C)C)NC(=O)[C@H](Cc1ccccc1)NC(=O)[C@@H](NC(=O)[C@H](CCCNC(=N)N)NC(=O)[C@H](CCSC)NC(=O)[C@@H](NC(=O)[C@H](CCCCN)NC(=O)[C@H](CCCCN)NC(=O)[C@H](CO)NC(=O)[C@@H](NC(=O)CNC(=O)[C@H](CCCNC(=N)N)NC(=O)[C@H](CC(C)C)NC(=O)[C@@H](NC(=O)[C@@H](N)CCCCN)[C@@H](C)CC)C(C)C)[C@@H](C)CC)[C@@H](C)O)C(=O)N[C@@H](CO)C(=O)N[C@@H](CCCCN)C(=O)N[C@@H](CC(=O)O)C(=O)N[C@H](C(=O)N[C@@H](CC(C)C)C(=O)N[C@H](C(=O)NCC(=O)N[C@@H](CCCCN)C(=O)N[C@@H](CCCCN)C(N)=O)[C@@H](C)O)[C@@H](C)CC` (H-KILRGVSKKIMRTFLRRISKDILTGKK-NH2): the MBC amounted to 16 µg/mL (≈ 5.02 µM) in series [1]; 2 µg/mL (≈ 0.628 µM) in series [2]; 2 µg/mL (≈ 0.628 µM) in series [5]; 4 µg/mL (≈ 1.26 µM) in series [6]; 4 µg/mL (≈ 1.26 µM) in series [8]; 128 µg/mL (≈ 40.2 µM) in series [9]. For the same compound, the MBC in series [10] and in [11] was 4 µg/mL (≈ 1.26 µM) in each case. In addition, the MIC stood at 8 µg/mL (≈ 2.51 µM) in series [1]; 2 µg/mL (≈ 0.628 µM) in series [2]; 2 µg/mL (≈ 0.628 µM) in series [5]; 4 µg/mL (≈ 1.26 µM) in [6]; 128 µg/mL (≈ 40.2 µM) in series [9]; 4 µg/mL (≈ 1.26 µM) in [10]. For the same compound, the MIC in series [11] stood at 4 µg/mL (≈ 1.26 µM); in [12], 2 µg/mL (≈ 0.628 µM). In addition, the values for the Activity entry in series [3], in series [4] and in series [7] were “Toxic”, 38.4% and 24.8%, respectively.

`CC[C@H](C)[C@H](NC(=O)CN)C(=O)NCC(=O)N[C@@H](C)C(=O)N[C@H](C(=O)N[C@@H](CC(C)C)C(=O)N[C@@H](CCCCN)C(=O)N[C@H](C(=O)N[C@@H](CC(C)C)C(=O)N[C@H](C(=O)N[C@H](C(=O)NCC(=O)N[C@@H](CC(C)C)C(=O)N1CCC[C@H]1C(=O)N[C@@H](C)C(=O)N[C@@H](CC(C)C)C(=O)N[C@H](C(=O)N[C@@H](CO)C(=O)N[C@@H](Cc1c[nH]c2ccccc12)C(=O)N[C@H](C(=O)N[C@@H](CCCCN)C(=O)N[C@@H](CCCNC(=N)N)C(=O)N[C@@H](CCCCN)C(=O)N[C@@H](CCCNC(=N)N)C(=O)N[C@@H](CCC(N)=O)C(=O)N[C@@H](CCC(N)=O)C(N)=O)[C@@H](C)CC)[C@@H](C)CC)[C@@H](C)O)[C@@H](C)O)C(C)C)C(C)C` [MELITTIN]: the MBC was determined as 12.5 µg/mL (≈ 4.39 µM) in [1]; 2 µg/mL (≈ 0.703 µM) in series [2]; 4 µg/mL (≈ 1.41 µM) in series [5]; 4 µg/mL (≈ 1.41 µM) in series [6]; 4 µg/mL (≈ 1.41 µM) in series [8]; 2 µg/mL (≈ 0.703 µM) in series [9]. Besides, the MBC was found to be 16 µg/mL (≈ 5.62 µM) in series [10] and 4 µg/mL (≈ 1.41 µM) in series [11]. The figures for the MIC in series [2], in [6] and in series [12] were 2 µg/mL (≈ 0.703 µM), 4 µg/mL (≈ 1.41 µM) and 4 µg/mL (≈ 1.41 µM), respectively. The Activity is 90.1% in [4] and 86% in series [7].

With `CC[C@H](C)[C@H](NC(=O)[C@H](CCCCN)NC(=O)[C@H](CCCCN)NC(=O)[C@H](CO)NC(=O)[C@@H](NC(=O)CNC(=O)[C@H](CCCNC(=N)N)NC(=O)[C@H](CC(C)C)NC(=O)[C@@H](NC(=O)[C@@H](N)CCCCN)[C@@H](C)CC)C(C)C)C(=O)N[C@@H](CCSC)C(=O)N[C@@H](CCCNC(=N)N)C(=O)N[C@H](C(=O)N[C@@H](Cc1ccccc1)C(=O)N[C@@H](CC(C)C)C(=O)N[C@@H](CCCNC(=N)N)C(=O)N[C@@H](CCCNC(=N)N)C(=O)N[C@H](C(=O)N[C@@H](CC(C)C)C(=O)N[C@H](C(=O)NCC(=O)N[C@@H](CCCCN)C(=O)N[C@@H](CCCCN)C(N)=O)[C@@H](C)O)[C@@H](C)CC)[C@@H](C)O` (H-KILRGVSKKIMRTFLRRILTGKK-NH2), the MBC in series [1] stood at 25 µg/mL (≈ 9.12 µM); in series [2] it was 4 µg/mL (≈ 1.46 µM); in series [5] it was 8 µg/mL (≈ 2.92 µM); in series [6], 2 µg/mL (≈ 0.729 µM); in series [8], 4 µg/mL (≈ 1.46 µM); in series [9], 256 µg/mL (≈ 93.3 µM). Further, the MBC in series [10] and in [11] was 4 µg/mL (≈ 1.46 µM) throughout. Besides, the MIC in series [1] stood at 19 µg/mL (≈ 6.93 µM); in [2] it was 4 µg/mL (≈ 1.46 µM); in series [5], 8 µg/mL (≈ 2.92 µM); in [6] it was 2 µg/mL (≈ 0.729 µM); in series [9], 64 µg/mL (≈ 23.3 µM); in series [10] it was 4 µg/mL (≈ 1.46 µM). Further, the MIC in series [11] and in [12] was 4 µg/mL (≈ 1.46 µM) in each case. The Activity result in [3] was “Toxic”. In addition, in [4], the outcome was inactive.
